Test results taken from patent publication US9688654B2, “Compounds inhibiting leucine-rich repeat kinase enzyme activity” (Merck Sharp & Dohme Corp., priority 2013, dated 2017).
Values belong to the compound of their own block, whether it stands above or below them.

Legend:
Assay type in all cases: biochemical
[1] = target: T1, LRRK2 (G2019S mutation, GST-LRRK2 (amino acids 970-2527)) (Homo sapiens, UniProt Q5S007, G2019S); experiment: LRRK2 Km ATP LanthaScreen Assay; conditions: mean IC50
T1 construct: GST-LRRK2 (amino acids 970-2527); GST (N); purchased Life Technologies Corporation
T1 sequence (Q5S007 970-2527 G2019S): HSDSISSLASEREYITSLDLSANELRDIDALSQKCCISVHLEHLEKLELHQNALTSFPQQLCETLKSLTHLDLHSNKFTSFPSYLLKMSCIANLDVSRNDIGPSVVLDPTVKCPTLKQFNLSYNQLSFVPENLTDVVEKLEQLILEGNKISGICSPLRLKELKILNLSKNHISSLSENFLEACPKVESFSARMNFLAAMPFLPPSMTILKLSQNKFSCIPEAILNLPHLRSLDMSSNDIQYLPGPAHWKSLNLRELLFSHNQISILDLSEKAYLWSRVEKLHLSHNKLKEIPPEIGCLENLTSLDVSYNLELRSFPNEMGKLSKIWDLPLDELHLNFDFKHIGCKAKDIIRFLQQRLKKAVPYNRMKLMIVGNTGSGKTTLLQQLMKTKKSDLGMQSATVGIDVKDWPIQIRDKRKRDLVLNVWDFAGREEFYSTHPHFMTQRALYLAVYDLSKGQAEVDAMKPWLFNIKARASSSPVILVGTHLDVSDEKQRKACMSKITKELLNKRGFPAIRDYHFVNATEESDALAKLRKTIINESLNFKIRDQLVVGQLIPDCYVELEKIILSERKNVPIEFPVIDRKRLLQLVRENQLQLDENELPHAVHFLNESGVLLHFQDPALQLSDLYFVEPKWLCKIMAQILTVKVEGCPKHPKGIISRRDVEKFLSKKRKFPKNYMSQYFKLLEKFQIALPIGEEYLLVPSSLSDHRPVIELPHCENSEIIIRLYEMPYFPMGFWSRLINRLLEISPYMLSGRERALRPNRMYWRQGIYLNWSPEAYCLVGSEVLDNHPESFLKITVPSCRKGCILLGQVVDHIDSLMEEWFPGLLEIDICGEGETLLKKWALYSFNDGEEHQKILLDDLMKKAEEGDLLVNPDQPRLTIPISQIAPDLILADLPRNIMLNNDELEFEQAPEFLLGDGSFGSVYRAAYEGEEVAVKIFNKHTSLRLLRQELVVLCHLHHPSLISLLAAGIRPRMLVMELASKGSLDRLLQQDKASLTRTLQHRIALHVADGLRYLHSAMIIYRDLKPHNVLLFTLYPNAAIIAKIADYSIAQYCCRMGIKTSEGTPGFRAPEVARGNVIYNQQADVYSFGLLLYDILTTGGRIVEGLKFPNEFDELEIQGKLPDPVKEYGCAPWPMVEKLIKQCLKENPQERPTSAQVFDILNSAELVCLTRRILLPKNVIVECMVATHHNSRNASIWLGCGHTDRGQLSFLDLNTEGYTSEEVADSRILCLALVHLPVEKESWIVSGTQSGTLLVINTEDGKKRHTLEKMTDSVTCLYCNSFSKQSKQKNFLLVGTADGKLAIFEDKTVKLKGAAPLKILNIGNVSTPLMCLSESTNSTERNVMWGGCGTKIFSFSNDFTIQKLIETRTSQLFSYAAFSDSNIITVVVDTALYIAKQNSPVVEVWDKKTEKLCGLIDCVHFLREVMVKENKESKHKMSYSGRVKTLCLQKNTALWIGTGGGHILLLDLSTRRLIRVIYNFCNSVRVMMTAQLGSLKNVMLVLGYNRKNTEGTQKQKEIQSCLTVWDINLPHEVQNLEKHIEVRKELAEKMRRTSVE
Procedure: Unless otherwise noted, all LRRK2 IC50 data presented in tables refers to the LRRK2 Km ATP LanthaScreen™ Assay that is described in the Biological Assay section.
The data presented for the 5 mM and Km ATP LanthaScreen™ Assay represents mean IC50 values based on several test results and may have reasonable. deviations depending on the specific conditions and reagents used. Reagents for the LRRK2 5 mM and Km ATP LanthaScreen™ Assay were purchased from Life Technologies Corporation.
• a) 400 nl of a 1:2.15 serial dilution of test compound (98 μM top assay concentration) is spotted via Labcyte Echo to certain wells in a 384 well black, untreated plate. Control wells contain 400 nl of either DMSO or 400 nl of a known inhibitor in DMSO. • b) 10 μl of a 2.5 nM LRRK2 (G2019S mutation, GST-LRRK2 (amino acids 970-2527)) enzyme solution in 1× assay buffer (50 mM Tris pH 8.5, 10 mM MgCl2, 0.01% Brij-35, 1.0 mM EGTA, 2 mM DTT, 0.05 mM NaVO4) is added to all wells. • c) A 30 minute room temperature incubation is followed by addition of 10 μl […]) After a 35 minute room temperature incubation, 20 μl of TR-FRET Dilution Buffer (Invitrogen PV3756B) containing 4 nM Tb-labeled anti-phospho LRRKtide antibody and 20 mM EDTA is added to all wells. • e) Plates are incubated at room temperature for 1 hour and read on an Envision™ multi-mode plate reader with LanthaScreen™ settings. Results are analysed using Assay Data Analyzer. […] Results are analysed using Assay Data Analyzer.

IRAK1 = target: T2, IRAK1 (Homo sapiens, UniProt P51617); experiment: Kinase selectivity, Adapta platform; conditions: 1 micromolar compound, read-out: percent inhibition IRAK1
T2 construct: purchased Life Technologies Corporation
T2 sequence (P51617 whole entry): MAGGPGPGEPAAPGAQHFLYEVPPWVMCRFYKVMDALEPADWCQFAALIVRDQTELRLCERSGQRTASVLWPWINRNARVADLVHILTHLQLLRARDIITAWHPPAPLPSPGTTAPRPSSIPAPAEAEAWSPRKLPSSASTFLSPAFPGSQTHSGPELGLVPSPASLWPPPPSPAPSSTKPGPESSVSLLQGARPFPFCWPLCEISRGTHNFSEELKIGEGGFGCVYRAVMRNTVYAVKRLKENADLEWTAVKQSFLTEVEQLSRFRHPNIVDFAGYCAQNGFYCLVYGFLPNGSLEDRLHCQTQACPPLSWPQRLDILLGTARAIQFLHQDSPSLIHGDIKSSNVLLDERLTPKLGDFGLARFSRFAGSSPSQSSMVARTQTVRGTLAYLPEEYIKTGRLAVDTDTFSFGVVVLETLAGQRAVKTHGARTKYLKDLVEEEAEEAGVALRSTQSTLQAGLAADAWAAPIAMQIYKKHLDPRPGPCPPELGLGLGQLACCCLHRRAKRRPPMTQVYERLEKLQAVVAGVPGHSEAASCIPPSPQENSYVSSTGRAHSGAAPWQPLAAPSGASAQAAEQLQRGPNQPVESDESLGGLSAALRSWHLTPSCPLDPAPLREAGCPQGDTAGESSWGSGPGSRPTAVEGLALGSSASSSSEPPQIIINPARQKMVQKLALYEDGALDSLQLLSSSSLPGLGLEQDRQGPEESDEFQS

MAPK8 (JNK1) = target: T3, MAPK8 (JNK1) (Homo sapiens, UniProt P45983); experiment: Kinase selectivity, Z'-LYTE platform; conditions: 1 micromolar compound, read-out: percent inhibition MAPK8 (JNK1)
T3 construct: purchased Life Technologies Corporation
T3 sequence (P45983 whole entry): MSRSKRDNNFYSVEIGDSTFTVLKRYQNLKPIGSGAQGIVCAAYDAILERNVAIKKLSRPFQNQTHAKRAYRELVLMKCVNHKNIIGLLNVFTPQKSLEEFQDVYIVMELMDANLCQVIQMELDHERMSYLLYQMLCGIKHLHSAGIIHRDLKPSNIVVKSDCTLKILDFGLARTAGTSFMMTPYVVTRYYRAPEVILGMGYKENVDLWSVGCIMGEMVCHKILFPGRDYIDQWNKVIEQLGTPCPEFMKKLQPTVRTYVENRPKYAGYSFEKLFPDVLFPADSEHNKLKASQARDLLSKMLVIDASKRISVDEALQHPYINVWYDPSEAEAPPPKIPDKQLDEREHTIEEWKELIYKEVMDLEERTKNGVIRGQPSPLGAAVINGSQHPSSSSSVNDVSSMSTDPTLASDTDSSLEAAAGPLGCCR

BRAF V599E = target: T4, BRAF V599E (Homo sapiens, UniProt P15056, V600E); experiment: Kinase selectivity, Z'-LYTE platform; conditions: 1 micromolar compound, read-out: percent inhibition BRAF V599E
T4 construct: purchased Life Technologies Corporation
T4 sequence (P15056 whole entry V600E): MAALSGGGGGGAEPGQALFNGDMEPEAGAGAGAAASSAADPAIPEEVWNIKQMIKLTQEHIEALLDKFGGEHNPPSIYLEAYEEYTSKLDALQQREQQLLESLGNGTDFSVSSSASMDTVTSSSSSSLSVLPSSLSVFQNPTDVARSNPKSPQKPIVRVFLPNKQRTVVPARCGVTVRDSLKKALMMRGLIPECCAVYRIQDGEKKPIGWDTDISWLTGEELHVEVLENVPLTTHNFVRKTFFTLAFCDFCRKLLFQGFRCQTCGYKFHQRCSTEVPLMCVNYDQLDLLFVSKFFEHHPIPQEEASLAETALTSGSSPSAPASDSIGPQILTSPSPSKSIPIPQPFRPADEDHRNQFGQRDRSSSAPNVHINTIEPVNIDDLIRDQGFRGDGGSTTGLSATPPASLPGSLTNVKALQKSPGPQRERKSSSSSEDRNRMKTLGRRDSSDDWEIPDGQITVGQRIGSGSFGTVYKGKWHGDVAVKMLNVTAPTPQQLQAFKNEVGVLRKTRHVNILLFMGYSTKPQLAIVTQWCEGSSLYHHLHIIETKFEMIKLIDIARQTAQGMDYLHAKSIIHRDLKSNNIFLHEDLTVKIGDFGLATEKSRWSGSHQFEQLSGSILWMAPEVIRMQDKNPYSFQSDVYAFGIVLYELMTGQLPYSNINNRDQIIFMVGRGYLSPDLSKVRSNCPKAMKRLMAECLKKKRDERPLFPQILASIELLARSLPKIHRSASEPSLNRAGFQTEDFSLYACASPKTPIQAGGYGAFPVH

CLK2 = target: T5, CLK2 (Homo sapiens, UniProt P49760); experiment: Kinase selectivity, Z'-LYTE platform; conditions: 1 micromolar compound, read-out: percent inhibition CLK2
T5 construct: purchased Life Technologies Corporation
T5 sequence (P49760 whole entry): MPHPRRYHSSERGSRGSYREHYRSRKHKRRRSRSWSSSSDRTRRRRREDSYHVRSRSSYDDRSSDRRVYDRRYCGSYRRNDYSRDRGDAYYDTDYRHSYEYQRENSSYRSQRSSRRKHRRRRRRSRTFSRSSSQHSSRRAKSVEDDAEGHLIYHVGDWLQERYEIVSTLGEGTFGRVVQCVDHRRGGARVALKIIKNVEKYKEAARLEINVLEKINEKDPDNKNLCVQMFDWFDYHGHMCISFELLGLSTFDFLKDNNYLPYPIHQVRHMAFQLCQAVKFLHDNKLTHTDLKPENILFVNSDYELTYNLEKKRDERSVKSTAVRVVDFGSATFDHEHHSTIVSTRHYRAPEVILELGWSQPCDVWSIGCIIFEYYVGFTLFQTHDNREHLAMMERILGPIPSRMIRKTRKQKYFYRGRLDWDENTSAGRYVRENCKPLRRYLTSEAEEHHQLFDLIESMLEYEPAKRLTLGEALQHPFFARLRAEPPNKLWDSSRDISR

CHEK2 (CHK2) = target: T6, CHEK2 (CHK2) (Homo sapiens, UniProt O96017); experiment: Kinase selectivity, Z'-LYTE platform; conditions: 1 micromolar compound, read-out: percent inhibition CHEK2 (CHK2)
T6 construct: purchased Life Technologies Corporation
T6 sequence (O96017 whole entry): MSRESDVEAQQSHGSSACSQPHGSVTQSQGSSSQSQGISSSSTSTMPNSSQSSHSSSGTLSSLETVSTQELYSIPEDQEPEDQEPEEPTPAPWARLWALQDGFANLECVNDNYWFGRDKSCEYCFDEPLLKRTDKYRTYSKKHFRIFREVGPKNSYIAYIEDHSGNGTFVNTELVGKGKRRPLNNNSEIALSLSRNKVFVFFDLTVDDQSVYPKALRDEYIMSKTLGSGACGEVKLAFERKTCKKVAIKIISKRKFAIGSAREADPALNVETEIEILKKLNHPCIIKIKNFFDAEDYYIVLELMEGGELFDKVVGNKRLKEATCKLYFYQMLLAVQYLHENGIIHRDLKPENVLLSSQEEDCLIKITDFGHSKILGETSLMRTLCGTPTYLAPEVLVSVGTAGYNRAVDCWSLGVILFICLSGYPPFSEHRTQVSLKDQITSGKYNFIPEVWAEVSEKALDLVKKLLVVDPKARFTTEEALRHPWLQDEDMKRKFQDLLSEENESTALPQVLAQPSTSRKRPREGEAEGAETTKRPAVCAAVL

AURKB (Aurora B) = target: T7, AURKB (Aurora B) (Homo sapiens, UniProt Q96GD4); experiment: Kinase selectivity, Z'-LYTE platform; conditions: 1 micromolar compound, read-out: percent inhibition AURKB (Aurora B)
T7 construct: purchased Life Technologies Corporation

DYRK1A = target: T8, DYRK1A (Homo sapiens, UniProt Q13627); experiment: Kinase selectivity, Z'-LYTE platform; conditions: 1 micromolar compound, read-out: percent inhibition DYRK1A
T8 construct: purchased Life Technologies Corporation

CDK1/cyclin B = target: T9, CDK1/cyclin B (Homo sapiens, UniProt P06493); experiment: Kinase selectivity, Z'-LYTE platform; conditions: 1 micromolar compound, read-out: percent inhibition CDK1/cyclin B
T9 construct: purchased Life Technologies Corporation

JAK3 = target: T10, JAK3 (Homo sapiens, UniProt P52333); experiment: Kinase selectivity, Z'-LYTE platform; conditions: 1 micromolar compound, read-out: percent inhibition JAK3
T10 construct: purchased Life Technologies Corporation
T10 sequence (P52333 1-1124): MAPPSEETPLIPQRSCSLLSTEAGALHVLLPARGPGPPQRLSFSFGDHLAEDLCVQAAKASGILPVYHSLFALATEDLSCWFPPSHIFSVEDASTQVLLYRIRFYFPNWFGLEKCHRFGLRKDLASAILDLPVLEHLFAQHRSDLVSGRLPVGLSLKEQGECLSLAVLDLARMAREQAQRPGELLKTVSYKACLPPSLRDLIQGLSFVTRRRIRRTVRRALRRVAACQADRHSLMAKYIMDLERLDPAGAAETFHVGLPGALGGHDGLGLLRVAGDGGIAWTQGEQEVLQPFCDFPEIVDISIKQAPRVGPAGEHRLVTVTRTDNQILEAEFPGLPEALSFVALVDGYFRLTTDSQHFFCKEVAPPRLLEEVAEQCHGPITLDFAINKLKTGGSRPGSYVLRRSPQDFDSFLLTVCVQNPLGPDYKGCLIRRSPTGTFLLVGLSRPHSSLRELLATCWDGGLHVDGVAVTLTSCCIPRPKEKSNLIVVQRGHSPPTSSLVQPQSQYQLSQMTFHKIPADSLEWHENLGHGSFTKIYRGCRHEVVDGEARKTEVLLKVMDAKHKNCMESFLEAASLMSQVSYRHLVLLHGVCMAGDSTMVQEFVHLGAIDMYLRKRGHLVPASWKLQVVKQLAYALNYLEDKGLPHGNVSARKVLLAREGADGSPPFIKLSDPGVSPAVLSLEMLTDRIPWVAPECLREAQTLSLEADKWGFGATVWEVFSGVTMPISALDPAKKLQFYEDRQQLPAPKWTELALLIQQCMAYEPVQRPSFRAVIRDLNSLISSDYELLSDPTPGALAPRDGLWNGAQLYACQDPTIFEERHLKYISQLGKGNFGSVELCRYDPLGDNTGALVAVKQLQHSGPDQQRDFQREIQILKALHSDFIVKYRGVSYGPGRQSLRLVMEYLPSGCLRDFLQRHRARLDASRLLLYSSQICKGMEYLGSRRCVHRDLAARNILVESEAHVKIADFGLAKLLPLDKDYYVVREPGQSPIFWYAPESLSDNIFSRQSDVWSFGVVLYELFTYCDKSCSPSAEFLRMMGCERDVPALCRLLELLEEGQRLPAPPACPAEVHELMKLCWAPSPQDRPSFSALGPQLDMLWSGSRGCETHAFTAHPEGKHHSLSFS

MAPK1 (ERK2) = target: T11, MAPK1 (ERK2) (Homo sapiens, UniProt P28482); experiment: Kinase selectivity, Z'-LYTE platform; conditions: 1 micromolar compound, read-out: percent inhibition MAPK1 (ERK2)
T11 construct: purchased Life Technologies Corporation
T11 sequence (P28482 whole entry): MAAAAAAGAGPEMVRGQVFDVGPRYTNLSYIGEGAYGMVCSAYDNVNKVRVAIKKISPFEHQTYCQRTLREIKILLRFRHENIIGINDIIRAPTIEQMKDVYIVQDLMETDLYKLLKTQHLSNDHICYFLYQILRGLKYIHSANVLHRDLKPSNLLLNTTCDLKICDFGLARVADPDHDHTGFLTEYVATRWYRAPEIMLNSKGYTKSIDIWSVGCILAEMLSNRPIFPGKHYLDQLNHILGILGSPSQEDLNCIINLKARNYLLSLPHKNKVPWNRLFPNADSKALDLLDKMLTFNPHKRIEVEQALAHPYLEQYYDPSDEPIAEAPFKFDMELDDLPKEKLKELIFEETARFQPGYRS

IC50 [1]: 0.6 nM
Structure (SMILES): CC1(Oc2ccc3[nH]nc(-c4ccnc(N5CCN(S(C)(=O)=O)CC5)c4)c3c2)CC1 [Example 31]

IC50 [1]: 17 nM
Structure (SMILES): CO[C@H]1CCN(c2cc(-c3n[nH]c4ccc(OC5CC5)cc34)ccn2)C1 [Example 22]

IC50 [1]: 1 nM
Structure (SMILES): CN1CCN(c2cc(-c3n[nH]c4ccc(OC5(C)CC5)cc34)ccn2)CC1=O [Example 33]

IC50 [1]: 44 nM
Structure (SMILES): [O-][S+]1CCCN(c2cc(-c3n[nH]c4ccc(OC5CC5)cc34)ccn2)CC1 (stereo not drawn) [Example 15]

IC50 [1]: 67 nM
Structure (SMILES): CC1(Oc2ccc3[nH]nc(-c4ccnc(N5C6CCC5COC6)c4)c3c2)CC1 [Example 5]

IC50 [1]: 54 nM
Structure (SMILES): c1cc(-c2n[nH]c3ccc(OC4CC4)cc23)cc(N2CCc3oc(C4CC4)nc3C2)n1 [Example 19]

IC50 [1]: 30 nM
Structure (SMILES): FC1(F)CCN(c2cc(-c3n[nH]c4ccc(OC5CC5)cc34)ccn2)CC1 [Example 8]

IC50 [1]: 0.6 nM
Structure (SMILES): CN1CCN(c2cc(-c3n[nH]c4ccc(OC5(C)CC5)cc34)ccn2)CC1 [Example 32]

IC50 [1]: 51 nM
Structure (SMILES): CS(=O)(=O)N1CCCN(c2cc(-c3n[nH]c4ccc(OC5CC5)cc34)ccn2)CC1 [Example 17]

IC50 [1]: 1.1 nM
Structure (SMILES): C[C@H]1[C@H](N)[C@@H](O)CN1c1cc(-c2n[nH]c3ccc(OC4(C)CC4)cc23)ccn1 [Example 35]

IC50 [1]: 16 nM
Structure (SMILES): c1cnn(C2CCN(c3cc(-c4n[nH]c5ccc(OC6CC6)cc45)ccn3)CC2)c1 [Example 13]

IC50 [1]: 40 nM
Structure (SMILES): FC1(F)CN(c2cc(-c3n[nH]c4ccc(OC5CC5)cc34)ccn2)C1 [Example 25]

inhibition at 1 µM (IRAK1): 18%
inhibition at 1 µM (MAPK8 (JNK1)): 61%
inhibition at 1 µM (BRAF V599E): 29%
inhibition at 1 µM (CLK2): 46%
inhibition at 1 µM (CHEK2 (CHK2)): 14%
inhibition at 1 µM (AURKB (Aurora B)): 15%
inhibition at 1 µM (DYRK1A): 6%
inhibition at 1 µM (CDK1/cyclin B): 33%
inhibition at 1 µM (JAK3): 56%
inhibition at 1 µM (MAPK1 (ERK2)): 23%
IC50 [1]: 0.6 nM
Structure (SMILES): CC1(Oc2ccc3[nH]nc(-c4ccnc(N5CCOCC5)c4)c3c2)CC1 [Example 27]

IC50 [1]: 23 nM
Structure (SMILES): CO[C@H]1CN(c2cc(-c3n[nH]c4ccc(OC5CC5)cc34)ccn2)C[C@@H]1O [Example 10]

IC50 [1]: 71 nM
Structure (SMILES): O=S1(=O)CCCN(c2cc(-c3n[nH]c4ccc(OC5CC5)cc34)ccn2)CC1 [Example 16]

IC50 [1]: 19 nM
Structure (SMILES): F[C@H]1CN(c2cc(-c3n[nH]c4ccc(OC5CC5)cc34)ccn2)C[C@@H]1F [Example 14]

IC50 [1]: 29 nM
Structure (SMILES): O[C@H]1CCN(c2cc(-c3n[nH]c4ccc(OC5CC5)cc34)ccn2)C1 [Example 24]

IC50 [1]: 2.6 nM
Structure (SMILES): CC1(Oc2ccc3[nH]nc(-c4ccnc(N5CC[C@H](N)C5)c4)c3c2)CC1 [Example 37]

inhibition at 1 µM (IRAK1): -5%
inhibition at 1 µM (MAPK8 (JNK1)): 58%
inhibition at 1 µM (BRAF V599E): 19%
inhibition at 1 µM (CLK2): 42%
inhibition at 1 µM (CHEK2 (CHK2)): 4%
inhibition at 1 µM (AURKB (Aurora B)): 11%
inhibition at 1 µM (DYRK1A): 2%
inhibition at 1 µM (CDK1/cyclin B): 25%
inhibition at 1 µM (JAK3): 49%
inhibition at 1 µM (MAPK1 (ERK2)): 23%
IC50 [1]: 0.6 nM
Structure (SMILES): C[C@H]1CN(c2cc(-c3n[nH]c4ccc(OC5(C)CC5)cc34)ccn2)CCO1 [Example 28]

IC50 [1]: 23 nM
Structure (SMILES): CC1(Oc2ccc3[nH]nc(-c4ccnc(N5CC6CCC(C5)O6)c4)c3c2)CC1 [Example 4]

IC50 [1]: 20 nM
Structure (SMILES): c1cc(-c2n[nH]c3ccc(OC4COC4)cc23)cc(N2CCOCC2)n1 [Example 2]

IC50 [1]: 17 nM
Structure (SMILES): c1cc(-c2n[nH]c3ccc(OC4CC4)cc23)cc(N2CCOC3(CC3)C2)n1 [Example 6]

IC50 [1]: 111 nM
Structure (SMILES): O=S1(=O)CC2CC(C1)N(c1cc(-c3n[nH]c4ccc(OC5CC5)cc34)ccn1)C2 (stereo not drawn) [Example 11]

IC50 [1]: 2 nM
Structure (SMILES): CC1(Oc2ccc3[nH]nc(-c4ccnc(N5CC[C@@H](N)C5)c4)c3c2)CC1 [Example 36]

IC50 [1]: 1.2 nM
Structure (SMILES): Fc1cc2[nH]nc(-c3ccnc(N4CCOCC4)c3)c2cc1OC1CC1 [Example 3]

inhibition at 1 µM (IRAK1): -17%
inhibition at 1 µM (MAPK8 (JNK1)): 39%
inhibition at 1 µM (BRAF V599E): 5%
inhibition at 1 µM (CLK2): 49%
inhibition at 1 µM (CHEK2 (CHK2)): 8%
inhibition at 1 µM (AURKB (Aurora B)): 6%
inhibition at 1 µM (DYRK1A): 3%
inhibition at 1 µM (CDK1/cyclin B): 9%
inhibition at 1 µM (JAK3): 37%
inhibition at 1 µM (MAPK1 (ERK2)): 10%
IC50 [1]: 0.9 nM
Structure (SMILES): C[C@@H]1CN(c2cc(-c3n[nH]c4ccc(OC5(C)CC5)cc34)ccn2)C[C@H](C)O1 [Example 30]

IC50 [1]: 0.7 nM
Structure (SMILES): C[C@H]1[C@H](O)[C@@H](O)CN1c1cc(-c2n[nH]c3ccc(OC4(C)CC4)cc23)ccn1 [Example 34]

IC50 [1]: 10 nM
Structure (SMILES): c1cc(-c2n[nH]c3ccc(OC4CC4)cc23)cc(N2CCC(n3cncn3)CC2)n1 [Example 12]

IC50 [1]: 22 nM
Structure (SMILES): FC1(F)CCCN(c2cc(-c3n[nH]c4ccc(OC5CC5)cc34)ccn2)C1 [Example 20]

IC50 [1]: 19 nM
Structure (SMILES): FC1(F)CCN(c2cc(-c3n[nH]c4ccc(OC5CC5)cc34)ccn2)C1 [Example 21]

inhibition at 1 µM (IRAK1): 8%
inhibition at 1 µM (MAPK8 (JNK1)): 54%
inhibition at 1 µM (BRAF V599E): 18%
inhibition at 1 µM (CLK2): 53%
inhibition at 1 µM (CHEK2 (CHK2)): 2%
inhibition at 1 µM (AURKB (Aurora B)): 11%
inhibition at 1 µM (DYRK1A): 4%
inhibition at 1 µM (CDK1/cyclin B): 26%
inhibition at 1 µM (JAK3): 46%
inhibition at 1 µM (MAPK1 (ERK2)): 18%
IC50 [1]: 0.6 nM
Structure (SMILES): C[C@@H]1CN(c2cc(-c3n[nH]c4ccc(OC5(C)CC5)cc34)ccn2)CCO1 [Example 29]

IC50 [1]: 40 nM
Structure (SMILES): c1cc(-c2n[nH]c3ccc(OC4CC4)cc23)cc(N2CCOCC2)n1 [Example 1]
